Source: patent US20220396818A1, “POLYNUCLEOTIDE SYNTHESIS METHOD, KIT AND SYSTEM” (Oxford Nanopore Technologies PLC, priority 2019, published 2022)

Assays:
[1] = system: Therminator X DNA polymerase; experiment: Incorporation of 3′-O-azidomethyl-dNTPs to the 3′ end of blunt-ended DNA by Therminator X DNA polymerase (gel); assay type: biochemical, Thermococcus species 9° N; settings: presence of Mn2+ ions, 37° C.
Experimental: • 1. 5 μl of 10× Thermopol® buffer (20 mM Tris-HCl, 10 mM (NH4)2SO4, 10 mM KCl, 2 mM MgSO4, 0.1% Triton® X-100, pH 8.8, New England Biolabs) was mixed with 33.5 μl of sterile deionized water (ELGA VEOLIA) in a 1.5 ml Eppendorf tube. • 2. 2 μl of 20 μM primer (40 pmol, 1 equiv) (SEQ ID: NO: 68, FIG. 56a) and 3 μl of 20 μM template (60 pmol, 1.5 equiv) (SEQ ID: NO: 69, FIG. 56a) were added to the reaction mixture. • 3. 3′-O-modified-dTTP (2 μl of 100 μM) and MnCl2 (2.5 μl of 40 mM) were added. • 4. 2 μl of Therminator X DNA polymerase (20 U, New England BioLabs) was then added. • 5. The reaction was incubated for 30 minutes at 37° C. • 6. The reaction was stopped by addition of TBE-Urea sample buffer (Novex). • 7. The reaction was separated on polyacrylamide gel (15%) TBE buffer and visualized by ChemiDoc MP imaging system (BioRad).

[2] = system: Therminator IX DNA polymerase; experiment: Incorporation of 3′-O-modified-dNTPs opposite complementary base by Therminator IX DNA polymerase, with helper strand (gel); assay type: biochemical, Thermococcus species 9° N
Experimental: • 1. 2 μl of 10× Thermopol® buffer (20 mM Tris-HCl, 10 mM (NH4)2SO4, 10 mM KCl, 2 mM MgSO4, 0.1% Triton® X-100, pH 8.8, New England BioLabs) was mixed with 12.25 μl of sterile deionized water (ELGA VEOLIA) in 1.5 ml Eppendorf tube. • 2. 0.5 μl of 10 μM primer (5 pmol, 1 equiv) (SEQ ID NO: 22, FIG. 23j) and 0.75 μl of 10 μM template-A/G/T/C ([…], 1.5 equiv) (SEQ ID NOS: 23 to 26, FIG. 23j) and 1 μl of 10 μM helper strand-T/C/A/G (10 pmol, 2 equiv) (SEQ ID NOS: 27 to 30, FIG. 23j) were added to the reaction mixture. • 3. 3′-O-modified-dTTP/dCTP/dATP/dGTP (2 μl of 100 μM) and MnCl2 (1 μl of 40 mM) were added. • 4. 1.5 μl of Therminator IX DNA polymerase (15 U, New England BioLabs) was then added. • 5. […] The reaction was stopped by addition of TBE-Urea sample buffer (Novex). • 7. The reaction was separated on polyacrylamide gel (15%) TBE buffer and visualized by ChemiDoc MP imaging system (BioRad).
• 1. 5 μl of reaction mixture was added to 5 μl of TBE-Urea sample buffer (Novex) in a sterile 1.5 ml Eppendorf tube and heated to 95° C. for 5 minutes using a heat ThermoMixer (Eppendorf). • 2. 5 μl of the sample were then loaded into the wells of a 15% TBE-Urea gel 1.0 mm×10 well (Invitrogen) which contained preheated 1×TBE buffer Thermo Scientific (89 mM Tris, 89 mM boric acid and 2 mM EDTA). • 3. […]

DNA containing inosine [3] = experiment: Two-step cleavage of inosine-containing oligonucleotide with hAAG and base or Endo VIII (gel); assay type: biochemical
Experimental: A cleavage reaction on oligonucleotides was carried out using the procedure below: • 1. A pipette (Gilson) was used to transfer 41 μl sterile distilled water (ELGA VEOLIA) into a 1.5 ml Eppendorf tube. • 2. 50 of 10× ThermoPol® reaction buffer NEB (20 mM Tris-HCl, 10 mM (NH4)2SO4, 10 mM KCl, 2 mM MgSO4, 0.1% Triton® X-100, pH 8.8) were then added into the same Eppendorf tube. • 3. 10 each of oligonucleotides (FIG. 18e); template (SEQ ID NO: 3) or any fluorescently tagged long oligo strand, primer with T (SEQ ID NO: 4) and control (SEQ ID NO: 5) all at 5 pmols were added into the same tube. • 4. 10 of Human Alkyladenine DNA Glycosylase (hAAG) NEB (10 units/0) was added into the same tube. • 5. Reaction mixture was then gently mixed by resuspension with a pipette, centrifuged at 13,000 rpm for 5 seconds and incubated at 37° C. for 1 hour. • 6. Typically after incubation time had elapsed, the reaction was terminated by enzymatic heat inactivation (i.e. 65° C. for 20 minutes).
• 1. 2 μl (10-100 ng/0) DNA was added into a sterile 1.5 ml Eppendorf tube. • 2. 40 μl (0.2M) NaOH or 1.5 μl Endo VIII NEB (10 units/0) and 5 μl 10× Reaction Buffer NEB (10 mM Tris-HCl, 75 mM NaCl, 1 mM EDTA, pH 8 @ 25° C.) was also added into the same tube and gently mixed by resuspension and centrifugation at 13000 rpm for 5 sec. • 3. […]

Hairpin Oligonucleotide = experiment: Cleavage of hairpin oligonucleotide with Endonuclease V (gel); assay type: biochemical; settings: 37° C.
Experimental: Cleavage reaction on hairpin oligonucleotides was carried out using the procedure below: • 1. A pipette (Gilson) was used to transfer 43 μl sterile distilled water (ELGA VEOLIA) into a 1.5 ml Eppendorf tube. • 2. 50 of 10× Reaction Buffer® NEB (50 mM potassium acetate, 20 mM Tris-acetate, 10 mM magnesium acetate, 1 mM DTT, pH 7.9@25° C.) was then added into the same Eppendorf tube. • 3. 111 of hairpin oligonucleotide (SEQ ID NO: 45, FIG. 28c) having an amount of 5 pmols was added into the same tube. • 4. 10 of Human Endonuclease V (Endo V) NEB (30 units/μl) was added into the same tube. • 5. […] Typically after incubation time had elapsed, the reaction was terminated by enzymatic heat inactivation (i.e. 65° C. for 20 minutes).
(§1) • 1. 5 μl of DNA and TBE-Urea sample buffer (Novex) was added into a sterile 1.5 ml Eppendorf tube and heated to 95° C. for 2 minutes using a heat ThermoMixer (Eppendorf). • 2. The DNA mixtures were then loaded into the wells of a 15% TBE-Urea gel 1.0 mm×10 well (Invitrogen) which contained preheated 1×TBE buffer Thermo Scientific (89 mM Tris, 89 mM boric acid and 2 mM EDTA). • 3. X-cell sure lock module (Novex) was fastened in place and electrophoresis performed at the following conditions; 260V, 90 Amps for 40 minutes at room temperature. • 4. Detection and visualization of DNA in the gel was carried out with ChemiDoc MP (BioRad) using Cy3 LEDS. Visualization and analysis was carried out on the Image lab 2.0 platform.

DNA containing inosine [4] = experiment: One-step cleavage of oligonucleotide with Endonuclease V (gel); assay type: biochemical; settings: 37° C.
Experimental: Cleavage reaction on oligonucleotides was carried out using the procedure below: • 1. A pipette (Gilson) was used to transfer 41 μl sterile distilled water (ELGA VEOLIA) into a 1.5 ml Eppendorf tube. • 2. 50 of 10× Reaction Buffer® NEB (50 mM Potassium Acetate, 20 mM Tris-acetate, 10 mM Magnesium Acetate, 1 mM DTT, pH 7.9@25° C.) was then added into the same Eppendorf tube. • 3. 1 μl each of oligonucleotides (FIG. 24d); Template (SEQ ID NO: 31) or any fluorescently tagged long oligo strand, Primer with T (SEQ ID NO: 32) and control (SEQ ID NO: 33) and helper strand (SEQ ID NO: 34), all at 5 pmols, were added into the same tube. • 4. 1 μl of Human Endonuclease V (Endo V) NEB (10 units/μl) was added into the same tube. • 5. Reaction mixture was then gently mixed by resuspension with a pipette, centrifuged at 13,000 rpm for 5 seconds and incubated at 37° C. for 1 hour. • 6. Typically after incubation time had elapsed, reaction was terminated by enzymatic heat inactivation (i.e. 65° C. for 20 minutes).
as §1, with “thermoblock” for “ThermoMixer”, “Chemidoc” for “ChemiDoc”

3′-O-azidomethyl-dATP showed an Incorporation efficiency [1] of over 99%.

3′-O-azidomethyl-dCTP gave an Incorporation efficiency [1] of over 90%.

With 3′-O-azidomethyl-dGTP the Incorporation efficiency [1] was over 99%.

Work on 3′-O-azidomethyl-dTTP yielded an Incorporation efficiency [1] of over 99%, a primer remains unextended ([2]; after 20 minutes at 37° C. and 47° C.) of 10% and an Incorporation ([2]; in the presence of a helper strand, after 5 minutes) of 90%.

With “hAAG DNA glycosylase: Human Alkyladenine DNA Glycosylase (hAAG) NEB” the “yield of cleaved DNA (cleaved to uncleaved DNA ratio)” value (DNA containing inosine [3]; with a helper strand) was 50% and the “yield of cleaved DNA (cleaved to uncleaved DNA ratio)” value (DNA containing inosine [3]; without a helper strand) was 10%.

B1: Endo V: Human Endonuclease V (Endo V) NEB (protein, UniProt Q8N8Q3 1-282, looked up)
Endonuclease V: MALEAAGGPPEETLSLWKREQARLKAHVVDRDTEAWQRDPAFSGLQRVGGVDVSFVKGDSVRACASLVVLSFPELEVVYEESRMVSLTAPYVSGFLAFREVPFLLELVQQLREKEPGLMPQVLLVDGNGVLHHRGFGVACHLGVLTDLPCVGVAKKLLQVDGLENNALHKEKIRLLQTRGDSFPLLGDSGTVLGMALRSHDRSTRPLYISVGHRMSLEAAVRLTCCCCRFRIPEPVRQADICSREHIRKSLGLPGPPTPRSPKAQRPVACPKGDSGESSALC
In the case of B1, the “yield of digested DNA” value (Hairpin Oligonucleotide; after 5 minutes) is reported as about 98%, the “yield of digested DNA” value (Hairpin Oligonucleotide; after 10 minutes) is reported as about 99% and the “yield of digested DNA” value (Hairpin Oligonucleotide; after 30 minutes) is reported as about 99%. For the same molecule, the “yield of digested DNA” value (Hairpin Oligonucleotide; after 1 hr) was about 99%, the “yield of cleaved DNA (cleaved to uncleaved DNA ratio)” value (DNA containing inosine [4]; positive control that contained both full length strands) was 80% and the DNA cleavage yield (DNA containing inosine [4]; with a helper strand) was over 99%. The “yield of cleaved DNA” value (DNA containing inosine [4]; without a helper strand) was over 99%.
